Results: article PMC7979765, “trans-Translation inhibitors bind to a novel site on the ribosome and clear Neisseria gonorrhoeae in vivo” (Nature Communications, 2021)
“And” between values parts separate entries of the source, which are not always exact repeats. Identical values can stand only once.

Key:
trans-translation = assay: In vitro trans-translation assay (S12 extract, nanoluc-ns, tmRNA-nl); type: biochemical, Escherichia coli; parameters: background subtraction: unit not given here; details: for IC50: in vitro reconstituted assay; for normalized: activity, 0 = 100
Source text: The in vitro trans-translation assay is designed to produce the first 157 amino acids of nano-luciferase from a non-stop mRNA (nanoluc-ns) and add the C-terminal peptide […] via a mutant version of E. coli tmRNA (tmRNA-nl) to reconstitute an active nano-luciferase[45]. In this assay, the tagged nano-luciferase gene has >30,000-fold increase in activity over the peptide made in the absence of tmRNA-nl.
S12 lysates were made according to the procedure of Kim, et al.[46]. Briefly, a culture of E. coli BL21 (DE3) cells containing a pET28 plasmid carrying the E. coli T7 polymerase gene was grown at 37 °C to an OD600 = 0.8, induced with 1 mM IPTG and grown for an additional 3 h. Cells were harvested by centrifugation at 20,000 × g for 10 min at 4 °C and the pellet was resuspended in buffer A (20 mM Tris-acetate (pH 8.2), 14 mM Mg(OAc)2, 60 mM potassium glutamate, 1 mM DTT). Cells were lysed by sonication, the lysate was clarified by centrifugation at 12,000 × g for 10 min, and the supernatant was stored at −80 °C.
E. coli SmpB was purified as previously described. tmRNA-nl, a variant of E. coli tmRNA encoding the final 11 residues of nano-luciferase, was transcribed from the tmRNA-nl synthetic DNA sequence in vitro, purified, and folded as previously described for wild-type E. coli tmRNA[3]. The nanoluc-stop template DNA was prepared as previously described[3] by PCR amplification from pMC1 using T7 universal and nanoluc-stop primers. The nanoluc-ns was prepared in a similar manner using pMC1 with T7 universal and nanoluc-ns primers.
For in vitro trans-translation, tmRNA-nl and SmpB were premixed and stored on ice. S12 lysate (2 μl), freshly made polymix buffer (2 μl)[47] (final reaction concentrations 5 mM Hepes pH 7.6, 5 mM NH4Cl, 0.5 mM CaCl2, 1.5 mm MgCl2, 1 mM DTT, 8 mm putrescene, 2 mm ATP, 2 mM GTP, 1 mM CTP, 1 mM UTP, 0.3 mM each amino acid, 3 mg/ml E. coli tRNAs), nanoluc-ns template (0.5 μl; 60 ng) and 2 µl water were mixed and incubated at 37 °C for 5 min. This solution was dispensed to tubes containing 0.5 μl of different concentrations of an inhibitor prepared in 75% acetonitrile, 25% water, and incubated at 37 °C for 5 min. The tmRNA-nl/SmpB mixture (0.5 μl each, 2 μM final) was added to each tube and the samples were incubated at 37 °C for 1.5 h. NanoLuc substrate (Promega) was prepared according to the manufacturer’s instructions, one volume of this substrate solution was added to each sample tube, and the reactions transferred to a white 96-well plate. Luminescence readings were obtained using the SpectraMax i3 microplate reader. Data analysis was performed using GraphPad Prism 8.

[1] = Pharmacokinetic analyses in mice (PO suspension, IV, SC); type: in vivo, mouse
Procedure: Female CD-1 mice as above were fasted for 2 h prior, and 4 h after dosing. […] […], 3 mice from each group were euthanized by CO2 inhalation, blood was collected by cardiac puncture into K2EDTA collection tubes, and protein was precipitated and analysed by LC/MS-MS for plasma concentrations of MBX-4132. Data were analysed using WinNonLin.
[…] At 0.083, 0.5, 1, 4, 8 and 24 h post dose, blood was collected from 3 mice/group by tail vein or facial bleed into K2EDTA collection tubes, and protein was precipitated and analysed by LC/MS-MS for plasma concentrations of MBX-4132. Sampling was performed serially, with each mouse contributing sample at all time points. Data were analysed using WinNonLin.

Structure (SMILES)	IC50 (trans-translation)	normalized (trans-translation; [4132] 0.01)	background subtraction (trans-translation; [4132] 0.05)	raw luminescence read (rlu) (trans-translation; [4132] 0.05)	normalized (trans-translation; [4132] 0.05)	background subtraction (trans-translation; [4132] 0.1)	raw luminescence read (rlu) (trans-translation; [4132] 0.1)	normalized (trans-translation; [4132] 0.1)	background subtraction (trans-translation; [4132] 0.5)	raw luminescence read (rlu) (trans-translation; [4132] 0.5)	normalized (trans-translation; [4132] 0.5)	background subtraction (trans-translation; [4132] 1)	raw luminescence read (rlu) (trans-translation; [4132] 1)	background subtraction (trans-translation; [4132] 2)	raw luminescence read (rlu) (trans-translation; [4132] 2)	oral bioavailability (in words) ([1]; mice)	exposure in fasted vs fed mice (in words) ([1]; plasma at 1 and 4 h post dosing, formulation A)
O=C(Nc1nnc(-c2ccc(F)cc2)o1)c1ccc(Cl)cc1 [KKL-35, 4-chloro-N-(5-(4-fluorophenyl)-1,3,4-oxadiazol-2-yl)benzamide]	400 nM	–	–	–	–	–	–	–	–	–	–	–	–	–	–	–	–
O=C(Nc1nnc(-c2ccc(F)cc2)o1)N1CCc2ccccc2C1 [MBX-4132]	400 nM	102.817 and 102.626 and 90.8451	284	319 rlu	66.6667	337 and 425 and 284	443 rlu and 372 rlu and 319 rlu	59.331 and 41.3424 and 66.6667	266 and 178	301 rlu and 213 rlu	46.831 and 41.784	213 and 266 and 426	248 rlu and 284 rlu and 461 rlu	302 and 230	337 rlu and 248 rlu	highly orally bioavailable	No significant variation in exposure
